US10538512B2, “Aminoacylindazole immunomodulators for treatment of autoimmune diseases” (The Rockefeller University, priority 2016, dated 2020)
Each block holds one molecule with its values, some of them ahead of it.

Molecular target: T1, Human FXIIa (Homo sapiens, UniProt P00748)
T1 construct: active coagulation factor XII (FXIIa); purchased Enzyme Research Labs
T1 sequence (P00748 373-615 limits assumed): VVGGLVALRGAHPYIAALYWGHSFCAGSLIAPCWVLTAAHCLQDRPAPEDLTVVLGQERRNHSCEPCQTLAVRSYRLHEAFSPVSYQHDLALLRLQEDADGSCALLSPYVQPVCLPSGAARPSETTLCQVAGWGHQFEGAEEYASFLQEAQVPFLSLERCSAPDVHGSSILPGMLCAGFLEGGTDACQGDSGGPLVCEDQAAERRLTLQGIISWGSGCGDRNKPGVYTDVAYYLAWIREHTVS
T1 sequence (P00748 20-372 partner limits assumed): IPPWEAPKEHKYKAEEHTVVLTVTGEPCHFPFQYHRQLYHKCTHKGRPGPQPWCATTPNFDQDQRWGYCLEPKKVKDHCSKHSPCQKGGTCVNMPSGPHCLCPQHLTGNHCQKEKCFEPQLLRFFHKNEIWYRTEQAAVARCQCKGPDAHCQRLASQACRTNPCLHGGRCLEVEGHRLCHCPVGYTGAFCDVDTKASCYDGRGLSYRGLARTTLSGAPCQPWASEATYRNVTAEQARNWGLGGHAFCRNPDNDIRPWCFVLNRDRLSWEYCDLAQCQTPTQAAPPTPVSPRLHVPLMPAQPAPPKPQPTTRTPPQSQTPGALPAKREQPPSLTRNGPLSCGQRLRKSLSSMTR
Test: Factor XIIa (FXIIa) inhibitory activity, chromogenic substrate assay
Format: biochemical
Settings: Human FXIIa 12.5 nM, Pefachrome XIIa 400 μM, 10 min preincubation
Procedure: Factor XIIa (FXIIa) Inhibitory Activity:
In a 96-well clear bottom plate, 80 μl of assay buffer was added to each well. Assay buffer consists of 0.5× Hank's Balanced Salt Solution (Invitrogen), buffered with 25 mM HEPES pH 7.4 (Invitrogen) and 0.5× Tris-buffered saline with Tween-20 0.05% (Santa Cruz Biotechnology). Test compounds were first dissolved in DMSO (Sigma) and then 4 μl were added to test wells containing assay buffer. Serial dilutions using an automated multi-channel pipette were used to generate a concentration range of approximately 1-100 μM. […] 80 μl of this enzyme solution was added to the assay wells. The enzyme/compound mixtures were incubated for 10 minutes at room temperature. Chromogenic substrate (Pefachrome XIIa; Enzyme Research Labs) was added to assay wells at a final concentration of 400 μM. The assay plate was spun for 1 minute at 1500 g and then read at 37° C. in a SpectraMax M2 plate reader (λ=405 nm). Activity was quantified as the rate of change in absorbance, which corresponds to the rate of substrate cleavage.

IC50: 1.5 µM
Structure (SMILES): Cc1ccc2c(c1)N(C)CCC2C(=O)n1nc2c(c1N)CCCC2 (stereo not shown) [Example 163]

IC50: 0.04 µM
Structure (SMILES): Cc1cccc2c1NCCC2C(=O)n1nc2c(c1N)C=CCC2 (single isomer, unassigned) [Example 195, (S*)-(3-amino-6,7-dihydroindazol-2-yl)(8-methyl-1,2,3,4-tetrahydroquinolin-4-yl)methanone]

IC50: 9 µM
Structure (SMILES): Nc1c2c(nn1C(=O)[C@@H]1CCNc3ccc(Cl)cc31)CC[C@H](O)C2 (single isomer, unassigned) [Example 144, ((5S*)-3-amino-5-hydroxy-4,5,6,7-tetrahydroindazol-2-yl)((4R*)-6-chloro-1,2,3,4-tetrahydroquinolin-4-yl)methanone]

IC50: 7 µM
Structure (SMILES): Cc1cccc2c1NCCC2C(=O)n1nc2c(c1N)C=CCC2 (single isomer, unassigned) [Example 194, (R*)-(3-amino-6,7-dihydroindazol-2-yl)(8-methyl-1,2,3,4-tetrahydroquinolin-4-yl)methanone]

IC50: > 100 µM
Structure (SMILES): Nc1nn(C(=O)[C@H]2CCNc3c(Cl)cccc32)c2c1CC[C@@H](O)C2 (single isomer, unassigned) [Example 211, ((6R*)-3-amino-6-hydroxy-4,5,6,7-tetrahydroindazol-1-yl)((4S*)-8-chloro-1,2,3,4-tetrahydroquinolin-4-yl)methanone]

IC50: 4 µM
Structure (SMILES): Nc1c2c(nn1C(=O)[C@@H]1CCNc3ccc(F)cc31)CC[C@H](N)C2 (stereo in doubt) [Example 193, ((5S*)-3,5-diamino-4,5,6,7-tetrahydroindazol-2-yl)((4R*)-6-fluoro-1,2,3,4-tetrahydroquinolin-4-yl)methanone]

IC50: 65 µM
Structure (SMILES): Nc1nn(C(=O)C2CCNc3ccc(F)cc32)c2c1CC(F)CC2 (single isomer, unassigned) [Example 142, ((5S*)-3-amino-5-fluoro-4,5,6,7-tetrahydroindazol-1-yl)((4R/S)-6-fluoro-1,2,3,4-tetrahydroquinolin-4-yl)methanone]

IC50: 17 µM
Structure (SMILES): Nc1c2c(nn1C(=O)[C@@H]1CCNc3ccc(F)cc31)CC[C@H](F)C2 (single isomer, unassigned) [Example 141, ((5S*)-3-amino-5-fluoro-4,5,6,7-tetrahydroindazol-2-yl)((4R*)-6-fluoro-1,2,3,4-tetrahydroquinolin-4-yl)methanone]

IC50: 0.16 µM
Structure (SMILES): Nc1c2c(nn1C(=O)[C@H]1CCNc3c(Cl)cccc31)C[C@@H](O)CC2 (single isomer, unassigned) [Example 207, ((6S*)-3-amino-6-hydroxy-4,5,6,7-tetrahydroindazol-2-yl)((4S*)-8-chloro-1,2,3,4-tetrahydroquinolin-4-yl)methanone]

IC50: 85 µM
Structure (SMILES): Nc1nn(C(=O)C2CCNc3ccc(F)cc32)c2c1CC(F)CC2 (single isomer, unassigned) [Example 139, ((5R*)-3-amino-5-fluoro-4,5,6,7-tetrahydroindazol-1-yl)((4RS)-6-fluoro-1,2,3,4-tetrahydroquinolin-4-yl)methanone]

IC50: > 40 µM
Structure (SMILES): Nc1nn(C(=O)[C@@H]2CCNc3ccc(Cl)cc32)c2c1C[C@H](O)CC2 (single isomer, unassigned) [Example 149, ((5R*)-3-amino-5-hydroxy-4,5,6,7-tetrahydroindazol-1-yl)((4R*)-6-chloro-1,2,3,4-tetrahydroquinolin-4-yl)methanone]

IC50: > 80 µM
Structure (SMILES): Nc1c2c(nn1C(=O)[C@@H]1CCNc3ccc(F)cc31)CC[C@@H](N)C2 (stereo in doubt) [Example 188, ((5R*)-3,5-diamino-4,5,6,7-tetrahydroindazol-2-yl)((4R*)-6-fluoro-1,2,3,4-tetrahydroquinolin-4-yl)methanone]

Further lines, the molecule ahead of its results:

Structure (SMILES): Nc1nn(C(=O)[C@@H]2CCNc3ccc(F)cc32)c2c1C[C@H](O)CC2 (relative stereo) [Example 132, ((5R*)-3-amino-5-hydroxy-4,5,6,7-tetrahydro-2H-indazol-1-yl)((4R*)-6-fluoro-1,2,3,4-tetrahydroquinolin-4-yl)methanone]
IC50: > 90 µM

Structure (SMILES): Nc1nn(C(=O)C2CCNc3cc(Cl)ccc32)c2c1CCCC2 (stereo not shown) [Example 104, (3-amino-4,5,6,7-tetrahydroindazol-1-yl)(7-chloro-1,2,3,4-tetrahydroquinolin-4-yl)methanone]
IC50: > 50 µM

Structure (SMILES): CCc1cc2c(C(=O)n3nc4c(c3N)CCCC4)ccnc2[nH]1 [Example 113, (3-amino-4,5,6,7-tetrahydro-2H-indazol-2-yl)(2-ethyl-1H-pyrrolo[2,3-b]pyridin-4-yl)methanone]
IC50: 0.05 µM

Structure (SMILES): CCc1cc2c([nH]1)CCCC2C(=O)n1nc2c(c1N)CCCC2 (stereo not shown) [Example 82, (3-amino-4,5,6,7-tetrahydroindazol-2-yl)(2-ethyl-4,5,6,7-tetrahydro-1H-indol-4-yl)methanone]
IC50: 0.04 µM

Structure (SMILES): Nc1c2c(nn1C(=O)C1CCNc3cc(C(F)(F)F)ccc31)CCCC2 (stereo not shown) [Example 105, (3-amino-4,5,6,7-tetrahydro-2H-indazol-2-yl)(7-(trifluoromethyl)-1,2,3,4-tetrahydroquinolin-4-yl)methanone]
IC50: 1.8 µM

Structure (SMILES): Nc1c2c(nn1C(=O)[C@H]1CCNc3ccc(F)cc31)CC[C@H](O)C2 (single isomer, unassigned) [Example 133, ((5S*)-3-amino-5-hydroxy-4,5,6,7-tetrahydroindazol-2-yl)((4S*)-6-fluoro-1,2,3,4-tetrahydroquinolin-4-yl)methanone]
IC50: 33 µM

Structure (SMILES): COc1ccc2c(c1)NCCC2C(=O)n1nc(N)c2c1CCCC2 (stereo not shown) [Example 111, (3-amino-4,5,6,7-tetrahydroindazol-1-yl)(7-methoxy-1,2,3,4-tetrahydroquinolin-4-yl)methanone]
IC50: > 100 µM

Structure (SMILES): Cc1ccc2c(c1)NCCC2C(=O)n1nc2c(c1N)CCCC2 (stereo not shown) [Example 101, (3-amino-4,5,6,7-tetrahydroindazol-2-yl)(7-methyl-1,2,3,4-tetrahydroquinolin-4-yl)methanone]
IC50: 0.9 µM

Structure (SMILES): CN1CCC(C(=O)n2nc3c(c2N)CCCC3)c2ccccc21 (single isomer, unassigned) [Example 25, (3-Amino-4,5,6,7-tetrahydroindazol-2-yl)(1-methyl-1,2,3,4-tetrahydroquinolin-4-yl)methanone]
IC50: 0.3 µM

Structure (SMILES): CCc1cc2c(C(=O)n3nc(N)c4c3CCCC4)ccnc2[nH]1 [Example 114, (3-amino-4,5,6,7-tetrahydro-1H-indazol-1-yl)(2-ethyl-1H-pyrrolo[2,3-b]pyridin-4-yl)methanone]
IC50: > 100 µM

Structure (SMILES): Nc1nn(C(=O)[C@H]2CCNc3ccc(F)cc32)c2c1C[C@@H](O)CC2 (single isomer, unassigned) [Example 135, ((5S*)-3-amino-5-hydroxy-4,5,6,7-tetrahydro-1H-indazol-1-yl)((4S*)-6-fluoro-1,2,3,4-tetrahydroquinolin-4-yl)methanone]
IC50: 24 µM

Structure (SMILES): CN1CCC(C(=O)n2nc3c(c2N)CCCC3)c2ccccc21 (single isomer, unassigned) [Example 72, (S*)-(3-amino-4,5,6,7-tetrahydroindazol-2-yl)(1-methyl-1,2,3,4-tetrahydroquinolin-4-yl)methanone]
IC50: 0.15 µM

Structure (SMILES): Nc1c2c(nn1C(=O)C1CCCc3[nH]c(Cl)cc31)CCCC2 (single isomer, unassigned) [Example 107, (R*)-(3-amino-4,5,6,7-tetrahydro-2H-indazol-2-yl)(2-chloro-4,5,6,7-tetrahydro-1H-indol-4-yl)methanone]
IC50: 8 µM
